# Several values for one entry are separate records, joined by “and”; a condition that tells them apart may be missing. Identical values can stand only once.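 Compound exposure: 48 hours, 5 concentrations, 96-well plates. GI50 marks 50% less growth. TGI: concentration producing complete growth inhibition.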 Activity calls are given as the source filed them. No stated cut-off is given here; in the data, active means GI50 below about 0.43 µM; inactive means the rest.
# How the values were obtained:
# Assay in all cases: NCI anticancer screen, dose series, 48 h
# MDA-N = tested on: MDA-N
# DMS 273 small cell lung = tested on: DMS 273 small cell lung
# HOP-18 NSCLC = tested on: HOP-18 NSCLC
# KM20L2 colon = tested on: KM20L2 colon
# SNB-78 CNS = tested on: SNB-78 CNS
# DMS 114 small cell lung = tested on: DMS 114 small cell lung
# RXF-631 renal = tested on: RXF-631 renal
# XF 498 CNS = tested on: XF 498 CNS
# M19-MEL melanoma = tested on: M19-MEL melanoma
SMILES,TGI (MDA-N),TGI (DMS 273 small cell lung),TGI (HOP-18 NSCLC) [µM],TGI (KM20L2 colon) [µM],TGI (SNB-78 CNS),TGI (DMS 114 small cell lung),TGI (RXF-631 renal) [µM],TGI (XF 498 CNS) [µM],TGI (M19-MEL melanoma) [µM],also measured
CC(CO)[C@H]1OC(=O)C=C2[C@@]13O[C@@H]3[C@H]1OC(=O)[C@@]3(C)[C@H]4O[C@H]4C[C@@]2(C)[C@@H]13 (stereo partly specified),14 µM,,,,,,,,,
CC[O-].CC[O-].O=C1C(=C([O-])c2ccccc2)C(=O)c2ccccc21.O=C1C(=C([O-])c2ccccc2)C(=O)c2ccccc21.[Ti+4],,> 100 µM,> 100,> 100,> 100 µM,,,,,GI50 (DMS 273 small cell lung): 54.8 µM; GI50 (HOP-18 NSCLC): > 100 µM; GI50 (KM20L2 colon): > 100 µM; GI50 (SNB-78 CNS): > 100 µM
Nc1c(C(=O)Nc2ccc([As](=O)(O)O)cc2)cnc2nnnn12,> 100 µM,,,,,,,,,
CSc1nc2c(c(O)c(C)c(=O)n2C2OC(COC(C)=O)C(OC(C)=O)C(OC(C)=O)C2OC(C)=O)c(=O)n1C (stereo unspecified),,> 100 µM,> 100,> 100,> 100 µM,> 100 µM,> 100,> 100,,
COC(=O)c1nc(NN)[nH]c(=O)c1CCCCCc1c(C(=O)OC)[nH]c(NN)cc1=O,,> 100 µM,> 100,> 100,> 100 µM,> 100 µM,,> 100,> 100,
CN1C2CC(C#N)C1C=CC2=O (stereo unspecified),43.1 µM and > 100 µM,,,,,,,,,GI50 (MDA-N): 19.2 µM and 63.3 µM
CC12CC3(C)CC(C)(C1)CC(N=[N+]=[N-])(C2)C3,,> 100 µM,> 100,,> 100 µM,> 100 µM,> 100,> 100,> 100,
O=C(CC(C(=O)c1cccs1)c1ccc2c(c1)OCO2)c1ccc(Br)cc1 (stereo unspecified),> 100 µM,,,,,,,,,
Cc1cc(Cl)ccc1NC(=O)C(=O)Cc1nc2ccc(C(=O)c3ccccc3)cc2[nH]c1=O,,> 100 µM,> 100,> 100,,> 100 µM,,> 100,> 100,
Clc1ccc([O][In]([O]c2ccc(Cl)cn2)[O]c2ccc(Cl)cn2)nc1,,> 100 µM,> 100,> 100,> 100 µM,> 100 µM,,,> 100,GI50 (DMS 114 small cell lung): > 100 µM; GI50 (DMS 273 small cell lung): > 100 µM; GI50 (HOP-18 NSCLC): > 100 µM; GI50 (KM20L2 colon): > 100 µM; GI50 (M19-MEL melanoma): > 100 µM; GI50 (SNB-78 CNS): > 100 µM
O=C(O)c1cc[c]([Hg][S]c2ncnc3nc[nH]c23)cc1,20.3 µM,,,,,,,,,GI50 (MDA-N): 4.84 µM
COc1ccc(C(C2=C(C)C(=O)c3ccccc3C2=O)c2ccc(C(C)C)cc(=O)c2O)cc1 (stereo unspecified),,5.4 µM,,,35.1 µM,8.54 µM,,34.1,4.92,
CC(C)N(C(=O)C12C3C4C1C1C2C3C41C(O)C(C)(C)C)C(C)C (stereo unspecified),,> 50 µM,,> 50,> 50 µM,> 50 µM,,> 50,> 50,
Fc1cccc(Cl)c1C1SCc2nc3ccccc3n21 (stereo unspecified),,57.9 µM,> 100,49.7,73.8 µM,65.6 µM,> 100,66.1,89,
COC(=O)c1ccc2c(c1)C(NC(C)=O)CCc1cc(OC)c(OC)c(OC)c1-2 (stereo unspecified),< 0.01 µM,> 100 µM,> 100,< 0.01,> 4.64 µM,0.0356 µM,> 6.91,> 100,> 100,
CC(=O)N(CCN)CCN,,> 10 µM,,> 10,> 10 µM,> 10 µM,> 10,> 100,> 10,
C/C(=N/N(C=O)C[n+]1ccccc1)C(CN(CC(C)C)CC(C)C)C(=O)Nc1ccc(C)cc1C (stereo unspecified),,,,> 100,,> 100 µM,> 100,,,
CC(C)c1ccc2nc3ccc(C(=O)NCCN(C)C)cn3c(=O)c2c1,31.8 µM,,,,,,,,,
CC1(C)CCC(C)(C)c2cc(C(=O)Nc3ccc(C(=O)O)cc3)ccc21,> 62.8 µM,,,,,,,,,
COC1/C=C/OC2(C)Oc3c(C)c(O)c4c(c3C2=O)C(=O)C=C(NC(=O)/C(C)=C\C=C\C(C)C(OC=O)C(C)C(O)C(C)C(OC(C)=O)C1C)C4=O (stereo unspecified),> 50.7 µM,30.9 µM,15.8,35.2,44.2 µM,34.6 µM,35.7,12.8,27.6,
CC(C)N(C(C)C)[PH+]1O[PH+](N(C(C)C)C(C)C)O[PH+](N(C(C)C)C(C)C)O[PH+](N(C(C)C)C(C)C)O[PH+](N(C(C)C)C(C)C)O1.[C-]#[O+].[C-]#[O+].[C-]#[O+].[C-]#[O+].[C-]#[O+].[C-]#[O+].[C-]#[O+].[Cr].[Cr] (stereo unspecified),,> 100 µM,> 100,> 100,> 100 µM,> 100 µM,,> 100,> 100,GI50 (DMS 114 small cell lung): > 100 µM; GI50 (DMS 273 small cell lung): > 100 µM; GI50 (HOP-18 NSCLC): > 100 µM; GI50 (KM20L2 colon): > 100 µM; GI50 (M19-MEL melanoma): > 100 µM; GI50 (SNB-78 CNS): > 100 µM; GI50 (XF 498 CNS): > 100 µM
Clc1ccccc1NN(Cc1ccccn1)c1ccccc1Cl,36 µM,,,,,,,,,
Cc1cc(O)c2c(c1)C(O)(c1ccc3c(c1O)C(=O)c1c(O)cc(C)cc1C3(O)C1OC(CO)C(O)C(O)C1O)c1cccc(O)c1C2=O (stereo unspecified),,30.4 µM,8.38,36,36.1 µM,22.7 µM,29.5,16.7,24.8,
COc1cc2nncc(Sc3cnnc4ccccc34)c2cc1OC,,81.7 µM,37.8,68.3,92.4 µM,> 100 µM,53.6,,> 100,
COc1cc(-c2oc3ccccc3c(=O)c2O)cc(OC)c1OC,> 100 µM,,,,,,,,,

SMILES,TGI (MDA-N),TGI (DMS 273 small cell lung),TGI (HOP-18 NSCLC) [µM],TGI (KM20L2 colon) [µM],TGI (SNB-78 CNS),TGI (DMS 114 small cell lung),TGI (RXF-631 renal) [µM],TGI (XF 498 CNS) [µM],TGI (M19-MEL melanoma) [µM],also measured
C=C1C(=O)O[C@@H]2C[C@@]3(C)CC(=O)C=C(C)[C@@H]3C[C@H]12,17.2 µM,,,,,,,,,
O=C(C(=O)c1ccc(Cc2ccc(C(=O)C(=O)c3ccccc3)cc2)cc1)c1ccccc1,,> 100 µM,> 100,> 100,> 100 µM,> 100 µM,> 100,,> 100,
O=c1nc(-c2ccccc2)c2c3c(cccn13)CCC2,,> 100 µM,,,> 100 µM,> 100 µM,,> 100,> 100,
Cc1cc2c(cc1C)NC1=C(N2)OC(c2c[nH]c3ccc(COc4ccccc4)cc23)C1=O (stereo unspecified),> 100 µM,,,,,,,,,
O=c1oc2ccccc2c(O)c1C=NC(=S)c1ccncc1,> 100 µM,,,,,,,,,
COc1ccc(C2SC(N)=Nc3c2c(C)nn3C(=O)c2ccc(Cl)cc2)cc1OC (stereo unspecified),> 10 µM,,,,,,,,,
CCC1(Br)C(=O)NC(=O)N(C2CC(O)C(CO)O2)C1N=[N+]=[N-] (stereo unspecified),,> 100 µM,,> 100,> 100 µM,> 100 µM,,> 100,> 100,
O=[N+]([O-])c1ccc(N=Nc2c(O)[nH]c3ccc([N+](=O)[O-])cc23)cc1,,33.6 µM,,63.7,,86.3 µM,62.7,32.3,36.9,
CC1(C)C(=O)C(O)=CC2C1=CCC1C2(C)C(=O)CC2(C)C(C(C)(O)C(=O)CC(O)C(C)(C)O)C(O)CC12C (stereo unspecified),,9.61 µM,12.3,42.4,25.9 µM,45.9 µM,,6.34,> 97.2,
N#CC(C#N)SCc1ccccc1,,> 100 µM,,63.4,> 91.7 µM,60.1 µM,,,> 100,
Clc1ccc(COC(Cn2ccnc2)c2ccc(Cl)cc2Cl)cc1 (stereo unspecified),27.4 µM and 25.4 µM,,,,,,,,,
COC(=O)C1=CCON(c2ccccc2)C1c1ccccc1 (stereo unspecified),,> 100 µM,> 100,> 100,,> 100 µM,,> 100,> 100,
CON(C)C(=O)C(C)NC(=O)OCc1ccccc1 (stereo unspecified),> 100 µM,,,,,,,,,
CCc1ccccc1NC(=O)C(=O)C(C(=O)c1ccc(OC)cc1)c1ccc(OC)cc1 (stereo unspecified),,> 100 µM,> 100,> 100,> 100 µM,> 100 µM,> 100,> 100,,
O=C1c2ccccc2N2OC3(N4CCCC4)CCCC3C12c1ccccc1 (stereo unspecified),,> 100 µM,> 100,> 100,> 100 µM,> 100 µM,,> 100,> 100,
CSc1ccc(/C=C2\CNC/C(=C\c3ccc(SC)cc3)C2=O)cc1,,150 µg/mL,> 371,,150 µg/mL,132 µM and 150 µg/mL,175,16.8,,GI50 (DMS 114 small cell lung): 54.1 µg/mL; GI50 (DMS 273 small cell lung): 46.2 µg/mL; GI50 (HOP-18 NSCLC): 111 µM; outcome (HOP-18 NSCLC): inactive; outcome (KM20L2 colon): inactive; GI50 (SNB-78 CNS): 28.8 µg/mL; outcome (XF 498 CNS): inactive
O=C(c1ccccc1)c1c(CC(O)c2cccnc2)n(C(=O)c2ccccc2)c2ccccc12 (stereo unspecified),,56.2 µM,,42,,74.2 µM,,27.1,38.3,
Cc1cc([N+](=O)[O-])c(C)c2c1[nH]c1ccc(/C(CCC3CCCC3)=N\N)cc12,,36.3 µM,23.8,,> 100 µM,35.2 µM,,28.1,37.2,
Cc1c(C)c2cc3c(=O)ccoc3c(C)c2oc1=O,,,> 100,> 100,> 100 µM,> 100 µM,> 100,,> 100,
O=C1[C@@H](c2ccc(Cl)cc2)[C@H]2CC=C[C@H]2N1O,,> 100 µM,,,> 100 µM,> 100 µM,> 100,> 100,> 100,
CC1(C)O[C@H]2OC3CCC(=O)CC3(O)[C@H]2O1 (stereo partly specified),> 100 µM,,,,> 100 µM,> 100 µM,,97.2,> 100,
COc1ccc([C@H]2CC(=O)N3CCCC3N2)cc1 (stereo partly specified),,> 100 µM,> 100,> 100,> 100 µM,> 100 µM,,> 100,> 100,
Nc1nc2c(ncn2Cc2ccccc2CCO)c(=O)[nH]1,,> 100 µM,,> 100,,> 100 µM,> 100,> 100,> 100,
Cc1cc(C)c2c(c1)CN1CN2Cc2cc(C)cc(C)c21,,37.2 µM,80.3,,40.2 µM,,,33.4,53.4,
Nc1cc2c3c(cccc3c1)NC2=O,> 100 µM,,,,,,,,,

# Reference: PubChem BioAssay (NCI)
